According to patent US10537580B2, “Azocane and azonane derivatives and methods of treating hepatitis B infections” (Novira Therapeutics, Inc., priority 2015, dated 2020):

Assays:
[1] = tested on: HBV replication in HepG2-2.2.15 cells; assay: Inhibition of HBV replication dot-blot assay; type: cell-based; details: at 10 μM, six days, reduction in HBV DNA levels
Procedure: Compounds active in the HBV assembly assay are tested for their activity and toxicity in cellular assay. In the first anti-viral assay, the ability of compounds to inhibit HBV replication in an HBV-producing hepatoma cell line using the dot-blot method is evaluated.
Briefly, confluent monolayers of HepG2-2.2.15 cells are incubated with complete medium containing various concentrations of a test compound. Three days later, the culture medium is replaced with fresh medium containing the appropriately diluted test compound. Six days following the initial administration of the test compound, the cell culture supernatant is collected, and cell lysis is performed. The samples are applied onto Nylos membranes and DNA is immobilized to the membrane by UV cross-linking. After pre-hybridization, the HBV probe is added and the hybridization is performed overnight. The membranes are exposed to the Kodak films; antiviral activity is calculated from the reduction in HBV DNA levels (EC50). The EC50 for antiviral activity is calculated from the dose response curves of active compounds. Assay performance over time is monitored by the use of the standard positive control compounds ETV, BAY 41-4109, and HAP-1.
Selected compounds were tested for their activity and toxicity in cellular assay. In the first anti-viral assay, the ability of compounds to inhibit HBV replication in an HBV-producing hepatoma cell line using the dot-blot method was evaluated.
Confluent monolayers of HepG2-2.2.15 cells were incubated with complete medium containing various concentrations of a test compound. Three days later, the culture medium was replaced with fresh medium containing the appropriately diluted test compound. Six days following the initial administration of the test compound, the cell culture supernatant was collected, and cell lysis was performed. The samples were applied onto Nylos membranes and DNA was immobilized to the membrane by UV cross-linking. After pre-hybridization, the HBV probe was added and the hybridization was performed overnight. The membranes were exposed to the Kodak films; antiviral activity was calculated from the reduction in HBV DNA levels (EC50). The EC50 for antiviral activity was calculated from the dose response curves of active compounds. Assay performance over time was monitored by the use of the standard positive control compounds ETV, BAY 41-4109, and HAP-1.

[2] = molecular target: mutant C150 HBV capsid protein (C150Bo) (Hepatitis B virus genotype D subtype adw, UniProt P03147, C107A/C48A/C61A/R150C); assay: HBV assembly assay (fluorescence quenching in vitro capsid assembly); type: biochemical; details: at about 10 μM; 50 mM Hepes pH 7.5, 150 mM NaCl, 1 hour at room temperature
Sequence of mutant C150 HBV capsid protein (C150Bo) (P03147 whole entry C107A/C48A/C61A/R150C, looked up): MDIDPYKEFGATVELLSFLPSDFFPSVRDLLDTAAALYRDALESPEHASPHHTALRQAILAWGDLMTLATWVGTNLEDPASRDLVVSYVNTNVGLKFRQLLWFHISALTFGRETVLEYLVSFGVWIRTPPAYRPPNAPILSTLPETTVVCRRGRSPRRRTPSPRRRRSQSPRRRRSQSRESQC

| Compound | Activity in dot-blot-assay [1] | Activity (HBV assembly assay) [2] |
| --- | --- | --- |
| O=C(Nc1ccc(F)c(Cl)c1)c1ccc(F)c(S(=O)(=O)N2CCOCCC(O)C2)c1 (stereo not shown) [Compound 2039] | + (‘+’ indicates >50% activity at 10 μM) | + (‘+’ indicates >50% activity at about 10 μM) |
| O=C(Nc1ccc(F)c(Cl)c1)c1ccc(F)c(S(=O)(=O)N2CCOCC(O)CC2)c1 (stereo not shown) [Compound 2040_E1] | + (‘+’ indicates >50% activity at 10 μM) | + (‘+’ indicates >50% activity at about 10 μM) |
| O=C(Nc1ccc(F)c(Cl)c1)c1ccc(F)c(S(=O)(=O)N2CCOCC(O)CC2)c1 (stereo not shown) [Compound 2040_E2] | + (‘+’ indicates >50% activity at 10 μM) | + (‘+’ indicates >50% activity at about 10 μM) |
| O=C(Nc1ccc(F)c(Cl)c1)c1ccc(F)c(S(=O)(=O)N2CCCCC(O)C(F)C2)c1 (stereo not shown) [Compound 2285_D1] | + (‘+’ indicates >50% activity at 10 μM) | + (‘+’ indicates >50% activity at about 10 μM) |
| O=C(Nc1ccc(F)c(Cl)c1)c1ccc(F)c(S(=O)(=O)N2CCCCC(O)C(F)C2)c1 (stereo not shown) [Compound 2285_D2] | + (‘+’ indicates >50% activity at 10 μM) | + (‘+’ indicates >50% activity at about 10 μM) |
| O=C(Nc1cc(F)c(F)c(F)c1)c1ccc(F)c(S(=O)(=O)N2CCCCCCCC2)c1 [Compound 2435] | + (‘+’ indicates >50% activity at 10 μM) | + (‘+’ indicates >50% activity at about 10 μM) |
| O=C(Nc1ccc(F)c(Cl)c1)c1ccc(F)c(S(=O)(=O)N2CCCCCCCC2)c1 [Compound 2436] | + (‘+’ indicates >50% activity at 10 μM) | + (‘+’ indicates >50% activity at about 10 μM) |
| O=C(Nc1cc(F)c(F)c(F)c1)c1ccc(F)c(S(=O)(=O)N2CCOCC(O)CC2)c1 (stereo not shown) [Compound 2520] | + (‘+’ indicates >50% activity at 10 μM) | + (‘+’ indicates >50% activity at about 10 μM) |
